Experimental data published in PMC9913705, “Novel Non-Cyclooxygenase Inhibitory Derivative of Sulindac Inhibits Breast Cancer Cell Growth In Vitro and Reduces Mammary Tumorigenesis in Rats” (Cancers, 2023).
Where two headings read alike, the source gives them in different places.

Experiments:
purified ovine COX-1 = target: T1, purified ovine COX-1 (Ovis aries, UniProt P05979); test: COX-1 colorimetric activity assay (Cayman kit); type: biochemical
T1 construct: purchased Cayman Chemical Company
T1 sequence (P05979 25-600): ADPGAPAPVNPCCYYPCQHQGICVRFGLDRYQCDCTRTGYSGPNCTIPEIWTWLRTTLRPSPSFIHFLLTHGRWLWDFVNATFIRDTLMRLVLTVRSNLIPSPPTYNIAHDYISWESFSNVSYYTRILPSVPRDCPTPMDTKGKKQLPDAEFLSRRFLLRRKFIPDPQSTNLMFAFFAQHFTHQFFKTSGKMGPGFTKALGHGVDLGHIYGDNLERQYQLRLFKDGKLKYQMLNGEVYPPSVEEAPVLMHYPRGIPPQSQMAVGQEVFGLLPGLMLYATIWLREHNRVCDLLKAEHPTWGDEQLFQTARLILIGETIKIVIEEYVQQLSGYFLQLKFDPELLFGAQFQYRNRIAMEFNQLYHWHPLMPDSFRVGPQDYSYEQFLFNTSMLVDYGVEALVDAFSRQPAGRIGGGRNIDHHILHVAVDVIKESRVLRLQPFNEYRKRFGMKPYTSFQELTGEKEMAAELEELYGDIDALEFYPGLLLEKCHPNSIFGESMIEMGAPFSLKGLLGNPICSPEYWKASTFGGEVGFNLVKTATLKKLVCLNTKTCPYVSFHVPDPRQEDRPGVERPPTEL
Description: (§1) COX-1 and COX-2 activities were measured using purified ovine COX-1 and COX-2 with colorimetric assay kits obtained from Cayman Chemical Company (Ann Arbor, MI, USA) according to the manufacturer’s protocol. After the addition of arachidonic acid and incubation at 25 °C for 5 min, COX activity was determined by measuring absorbance at 590 nm.

purified ovine COX-2 = target: T2, purified ovine COX-2 (Ovis aries, UniProt P79208); test: COX-2 colorimetric activity assay (Cayman kit); type: biochemical; details: purified enzyme
T2 construct: purchased Cayman Chemical Company
T2 sequence (P79208 17-603): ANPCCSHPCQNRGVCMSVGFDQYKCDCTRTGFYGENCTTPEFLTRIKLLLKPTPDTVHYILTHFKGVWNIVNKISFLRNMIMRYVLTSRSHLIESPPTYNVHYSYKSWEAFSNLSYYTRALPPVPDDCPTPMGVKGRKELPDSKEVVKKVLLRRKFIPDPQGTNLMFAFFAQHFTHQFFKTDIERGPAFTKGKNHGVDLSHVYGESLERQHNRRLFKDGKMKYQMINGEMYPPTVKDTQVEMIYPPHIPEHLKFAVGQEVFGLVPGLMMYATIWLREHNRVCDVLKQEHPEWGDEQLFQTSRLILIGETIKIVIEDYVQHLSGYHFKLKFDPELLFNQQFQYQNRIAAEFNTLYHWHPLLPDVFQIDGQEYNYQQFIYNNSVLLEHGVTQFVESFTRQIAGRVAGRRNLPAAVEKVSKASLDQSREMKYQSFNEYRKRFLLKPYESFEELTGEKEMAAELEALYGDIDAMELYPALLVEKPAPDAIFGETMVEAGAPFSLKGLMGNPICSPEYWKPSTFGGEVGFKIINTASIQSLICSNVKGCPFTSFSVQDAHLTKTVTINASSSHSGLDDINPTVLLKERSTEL
Description: as §1

[1] = test system: human breast cancer cell lines; test: Growth inhibition, Cell Titer Glo, panel of human breast cancer cell lines; type: cell-based
Description: (§2) The human breast tumor cell lines Hs578t, MCF7, MDA-MB-231, SKBr3, and ZR75-1 were obtained from ATCC (Manassas, VA, USA) and grown in RPMI 1640 media containing L-glutamine, 5% fetal bovine serum, and penicillin/streptomycin at 37 °C in a humidified atmosphere with 5% CO2.
(§3) Growth inhibition was measured using the Promega (Madison, WI, USA) Cell Titer Glo Assay following manufacturer’s specifications. First, 96-well tissue culture treated microtiter plates were seeded at a density of 5000 cells per well and incubated at 37 °C for 24 h prior to drug treatment. After treatment, plates were incubated 72 h prior to assay.

Hs578t = test: Growth inhibition, Cell Titer Glo; type: cell-based; details: Homo sapiens, Hs-578T, 72 h, 2D
Description: as §2, §3

MCF7 = test: Growth inhibition, Cell Titer Glo; type: cell-based; details: Homo sapiens; MCF7, 72 h, 2D
Description: as §2, §3

MDA-MB-231 = test: Growth inhibition, Cell Titer Glo; type: cell-based; details: Homo sapiens; MDA-MB-231, 72 h, 2D
Description: as §2, §3

SKBr3 = test: Growth inhibition, Cell Titer Glo; type: cell-based; details: Homo sapiens, SK-BR-3; SKBr3, 72 h, 2D
Description: as §2, §3

ZR75-1 = test: Growth inhibition, Cell Titer Glo; type: cell-based; details: Homo sapiens, ZR-75-1; ZR75-1, 72 h, 2D
Description: as §2, §3

[2] = test system: Hs578t, MDA-MB-231, SKBr3, and ZR75-1 cells; test: Caspase 3/7 Glo assay; type: cell-based, human; details: 6 h treatment; range over Hs578t, MDA-MB-231, SKBr3, ZR75-1
Description: (§4) Caspase activation was measured using Promega’s Caspase 3/7 Glo Assay following the manufacturer’s specifications. First, 96-well tissue culture treated microtiter plates were seeded at a density of 10,000 cells per well and incubated at 37 °C for 24 h prior to drug treatment. After treatment, plates were incubated 6 h prior to assay.

MCF7 cells = test: Caspase 3/7 Glo assay; type: cell-based, human; details: MCF7, 6 h treatment
Description: as §4

SKBr3 cells = test: APO-BrdU TUNEL assay (DNA fragmentation), flow cytometry; type: cell-based, human; details: 24 h
Description: A terminal deoxynucleotidyl transferase dUTP nick end labeling (TUNEL) assay was performed in SKBr3 cells using the Invitrogen APO-BrdU TUNEL Assay (Waltham, MA, USA) according to the manufacturer’s protocol, and fluorescence was measured using a Guava EasyCyte (Hayward, CA, USA) flow cytometry system. First, 10 cm tissue culture treated dishes were seeded at a density of 2,000,000 cells per dish and incubated at […] for 24 h prior to drug treatment. After treatment, cells were incubated for 24 h and then collected and fixed with 4% paraformaldehyde for 15 min on ice, washed with phosphate buffered saline (PBS), and incubated in 70% ethanol at −20 °C for 4–24 h prior to assay.

[3] = test system: MDA-MB-231 breast tumor cells; test: 3D HuBiogel mini-tumor growth, calcein-AM live imaging; type: cell-based, human; details: MDA-MB-231, calcein AM live imaging
Description: Viable mini-tumors (1 mm in size) of MDA-MB-231 breast tumor cells were generated using the three-dimensional human Biogel culture system from Vivo Biosciences (Birmingham, AL, USA). Accordingly, 20,000 cells were mixed with HuBiogel beads and cultivated in rotary bioreactors for 3 days. Live cell imaging was performed using Calcein- acetoxymethyl (calcein-AM) staining.

recombinant PDE5 = target: T3, recombinant PDE5 (Homo sapiens, UniProt O76074); test: PDE activity, IMAP fluorescence polarization assay; type: biochemical
T3 construct: purchased BPS Biosciences
Description: (§5) PDE activity was measured using the Molecular Devices (San Diego, CA, USA) IMAP fluorescence polarization assay as previously described. Recombinant PDE5 was purchased from BPS Biosciences (San Diego, CA, USA).

[4] = test system: cGMP PDE in MDA-MB-231 whole cell lysate; test: cGMP hydrolysis in whole cell lysate, IMAP assay; type: biochemical, human; details: 100 µM
Description: as §5

[5] = test system: cGMP PDE in SKBr3 whole cell lysate; test: cGMP hydrolysis in whole cell lysate, IMAP assay; type: biochemical, human; details: 100 µM
Description: as §5

MDA-MB-231 cells = test: Intracellular cGMP levels; type: cell-based, human; details: intact MDA-MB-231, 30 min, concentrations comparable with growth IC50
Description: Intracellular levels of cGMP were measured in MDA-MB-231 cells after 30 min of drug treatment, as previously described.

[6] = test system: MDA-MB-231 breast cancer cells; test: Western blotting of phospho-VASP Ser239, cyclin D1, survivin; type: cell-based, human; details: 7.5 µM
Description: All antibodies were obtained from Cell Signaling Technologies (Danvers, MA, USA). Cells were harvested and vortexed in ice cold lysis buffer containing 20 mM tris acetate, 5mM magnesium acetate, 1 mM ethylene glycol-bis(β-aminoethyl ether)-N,N,N′,N′-tetraacetic acid (EGTA), 0.8% Triton X-100, 50 mM sodium fluoride, 1.25 mM sodium vanadate, and protease inhibitor cocktail at pH 7.4. Lysates were centrifuged at 10,000× g for 10 min at 4 °C. Protein contents were determined using the Thermo/Pierce (Waltham, MA, USA) bicinchoninic acid (BCA) protein assay following the manufacturer’s specifications.
Proteins (15 µg) from lysed cells were separated by sodium dodecyl sulfate polyacrylamide gel electrophoresis (SDS-PAGE) in a 12% polyacrylamide gel followed by electrophoretic transfer to a nitrocellulose membrane. The membranes were blocked with 5% nonfat dry milk in tris-buffered saline (TBS) containing 0.05% Tween-20. Membranes were incubated with primary antibody at 4 °C overnight followed by incubation with secondary antibody conjugated to horseradish peroxidase for 2 h at room temperature. Protein bands were visualized using Millipore Immobilon enhanced chemiluminescence (ECL) substrate on HyBlot CL autoradiography film.

Hs578t cells = test: Tcf transcriptional activity, Super8XTOPFlash luciferase reporter; type: cell-based, human; details: 24 h
Description: Tcf transcriptional activity was measured in Hs578t cells. Cells were seeded in 24-well tissue culture treated plates. After 24 h of incubation, cells were transiently transfected with 0.1 µg of Promega β-galactosidase-expressing vector and 0.1 µg of Super8XTOPFlash construct, which was kindly provided by Randall T. Moon from the University of Washington (Seattle, WA, USA). After 24 h of transfection, cells were treated with compound and incubated for an additional 24 h. Cells were lysed, and luciferase and β-galactosidase activities were measured using assay systems from Promega (Madison, WI, USA), following the manufacturer’s instructions. Luciferase activity was normalized to β-galactosidase activity.

[7] = test system: MNU-induced mammary tumors; test: MNU model of mammary carcinogenesis; type: in vivo; details: for reduction in tumor incidence compared to vehicle control / reduction in tumor multiplicity compared to vehicle control: 126 days after MNU
Description: In vivo efficacy was evaluated using the N-methyl-N-nitrosourea (MNU) model of mammary carcinogenesis, as previously described. Briefly, female Sprague-Dawley rats were obtained from Envigo (formerly Harlan Sprague-Dawley, Inc.) (Indianapolis, IN, USA) at 28 days of age and placed on a Teklad 4% fat diet on the day of arrival. Within one week of arrival, rats were randomly assigned to groups (15 rats/group), ear marked for identification, and weighed to ensure statistically similar average body weights per group. At 50 days of age, rats received one IV injection of MNU (75 mg/kg) via the jugular vein. Rats were administered 800 or 1200 ppm of SSA or vehicle control in diet beginning 3 days after MNU administration. Rats were weighed once per week, palpated for mammary tumors twice per week, and checked daily for signs of toxicity. The study was terminated at 126 days after MNU administration. All mammary tumors were weighed when removed at necropsy, weighed, and processed for histological classification and analysis. The protocol used for this study was approved by the University of Alabama at Birmingham (UAB) IACUC where the study was performed.

[8] = Plasma levels after dietary feeding; type: in vivo, Sprague-Dawley rats; details: diet containing 1000, 2000, or 3000 ppm
[9] = test system: human breast cancer cell lines; details: same cell lines and treatment conditions; read-out: IC50 for human breast cancer cell growth (range over cell lines); cited from earlier work

For CSc1ccc(/C=C2/C(C)=C(CC(=O)NCCN(C)C)c3cc(F)ccc32)cc1 [SSA, sulindac sulfide amide], the IC50 (purified ovine COX-1; purified enzyme) was 81.6 µM, the “fold less potent than sulindac sulfide (SS) in inhibiting COX-1” value (purified ovine COX-1; vs SS) was 68 fold and the IC50 (purified ovine COX-2) was greater than 200 µM. The IC50 ([1]; Homo sapiens, 72 h treatment, 2D growth, read-out: IC50 for human breast cancer cell growth (range over cell lines)) was 3.9 to 7.1 µM, the “fold more potent than SS in inhibiting growth and inducing apoptosis in breast cancer cells” value ([1]; vs SS) was 10 fold and the IC50 (Hs578t) was 7 µM. It also gave an IC50 (MCF7) of 7 µM, an IC50 (MDA-MB-231) of 6.5 µM and an IC50 (SKBr3) of 3.9 µM. The IC50 (ZR75-1) was 7.1 µM, the “increase in activity of caspases 3 and 7” value [2] was 2 to 6 fold and the caspase activation (MCF7 cells) was “no increase”. For the same compound, the “TUNEL Positive” value (SKBr3 cells; 10 μM) was 2%, the “TUNEL Positive” value (SKBr3 cells; 25 μM) was 59% and the “TUNEL Positive” value (SKBr3 cells; 50 μM) was 86%. For the same compound, the “cell growth in 3D HuBiogel” value [3] was “markedly reduced”, the inhibition at 25 µM (recombinant PDE5) was 55% and the “inhibition of cGMP hydrolysis” value [4] was 38%. The “inhibition of cGMP hydrolysis” value [5] was 65%, the “intracellular cGMP levels” value (MDA-MB-231 cells) was “increased intracellular cGMP levels” and the “VASP phosphorylation at serine 239 (PKG activity marker)” value ([6]; MDA-MB-231) was “significantly increased”. For the same compound, the “time of peak VASP phosphorylation” value ([6]; MDA-MB-231) was 1 h, the “cyclin D1 protein levels” value ([6]; after 1 h) was “decreased appreciably” and the survivin protein levels ([6]; after 7 h) was “decreased appreciably”. For the same compound, the “reduction of Tcf transcriptional activity” value (Hs578t cells; 5 µM) was 14%, the “reduction of Tcf transcriptional activity” value (Hs578t cells; 20 µM) was 60% and the “change in body weight” value ([7]; 800 and 1200 ppm in diet, 126-day study) was “Neither dose of SSA resulted in a significant change”. For the same compound, the “reduction in tumor incidence compared to vehicle control” value ([7]; 800 ppm in diet) was 22%, the “reduction in tumor multiplicity compared to vehicle control” value ([7]; 800 ppm in diet) was 31% and the “reduction in tumor incidence compared to vehicle control” value ([7]; 1200 ppm in diet) was 43%. For the same compound, the “reduction in tumor multiplicity compared to vehicle control” value ([7]; 1200 ppm in diet) was 62%, the “reduction in the incidence of tumors” value ([7]; abstract, dose not stated) was 57% and the “reduction in the multiplicity of tumors” value ([7]; abstract, dose not stated) was 62%. The “toxicity observed in rats” value ([7]; long-term dietary treatment) was “no discernable toxicity” and the plasma levels [8] was “exceed the concentrations necessary for SSA to activate cGMP signaling and inhibit growth in breast cancer cells in vitro”.
In the case of CSc1ccc(/C=C2/C(C)=C(CC(=O)O)c3cc(F)ccc32)cc1 [SS, sulindac sulfide], the IC50 [9] is listed as 58.8 to 83.7 µM.
